Laboratory results from US6387954B1, “Alkenyl sulphonamide derivatives” (Eli Lilly and Company, priority 1998, dated 2002).

Biological target: T1, human GluR4B receptor (Homo sapiens, UniProt P48058)
T1 construct: expressed in transfected cells; host or cells: HEK293
Assay: potentiation of agonist-induced excitability of GluR4B expressed in HEK 293 cells
Assay type: cell-based
Conditions: human GluR4B receptor expressed in HEK 293 cells
Excerpt: The ability of compounds of formula I to potentiate glutamate receptor-mediated response may be determined using fluorescent calcium indicator dyes (Molecular Probes, Eugene, Oregon, Fluo-3) and by measuring glutamate-evoked […] of calcium into GluR4 transfected HEK293 cells, as described in more detail below.
In one test, 96 well plates containing confluent monolayers of HEK cells stably expressing human GluR4B (obtained as described in European Patent Application Publication Number EP-A1-583917) are prepared. The tissue culture medium in the wells is then discarded, and the wells are each washed once with 200 μl of buffer (glucose, 10 mM, sodium chloride, 138 mM, magnesium chloride, 1 mM, potassium chloride, 5 mM, calcium chloride, 5 mM, N-[2-hydroxyethyl]-piperazine-N-[2-ethanesulfonic acid], 10 mM, to pH 7.1 to 7.3). […]
Each test is then performed as follows. […] A second fluorescent reading is taken after 5 minutes incubation. 15 μl of 400 μM glutamate solution is then added to each well (final glutamate concentration 100 μM), and a third reading is taken. The activities of test compounds and cyclothiazide solutions are determined by subtracting the second from the third reading (fluorescence due to addition of glutamate in the presence or absence of test compound or cyclothiazide) and are expressed relative to enhance fluorescence produced by 100 μM cyclothiazide.

T1 sequence (P48058 21-902): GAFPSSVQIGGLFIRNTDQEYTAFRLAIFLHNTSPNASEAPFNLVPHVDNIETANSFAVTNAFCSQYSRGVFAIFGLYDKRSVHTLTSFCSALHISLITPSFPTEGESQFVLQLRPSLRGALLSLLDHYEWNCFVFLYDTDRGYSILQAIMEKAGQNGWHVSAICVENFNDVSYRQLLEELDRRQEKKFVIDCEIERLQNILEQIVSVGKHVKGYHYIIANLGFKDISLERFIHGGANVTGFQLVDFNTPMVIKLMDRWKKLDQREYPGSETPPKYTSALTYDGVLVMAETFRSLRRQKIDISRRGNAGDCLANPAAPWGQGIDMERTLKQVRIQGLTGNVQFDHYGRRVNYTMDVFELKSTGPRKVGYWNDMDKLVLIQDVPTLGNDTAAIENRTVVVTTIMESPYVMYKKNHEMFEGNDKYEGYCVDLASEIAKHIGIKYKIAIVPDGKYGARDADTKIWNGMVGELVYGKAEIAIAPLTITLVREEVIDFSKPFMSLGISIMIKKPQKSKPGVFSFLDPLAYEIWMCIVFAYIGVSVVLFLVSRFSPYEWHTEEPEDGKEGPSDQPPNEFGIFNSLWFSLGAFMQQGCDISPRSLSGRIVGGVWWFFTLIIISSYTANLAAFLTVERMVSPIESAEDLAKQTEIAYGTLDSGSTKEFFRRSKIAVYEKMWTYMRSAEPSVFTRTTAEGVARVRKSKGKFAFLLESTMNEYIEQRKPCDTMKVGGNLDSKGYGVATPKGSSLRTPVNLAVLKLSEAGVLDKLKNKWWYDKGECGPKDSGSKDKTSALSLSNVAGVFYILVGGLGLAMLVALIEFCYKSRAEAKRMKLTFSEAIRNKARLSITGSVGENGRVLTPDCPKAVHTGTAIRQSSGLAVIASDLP

Structure (SMILES): NS(=O)(=O)c1cc2c(cc1Cl)NC(C1CC3C=CC1C3)NS2(=O)=O (stereo not shown) [cyclothiazide]
- potentiation of agonist-induced excitability: potentiate agonist-induced excitability
